Measured values reported in article PMC6222509, “Dibasic Derivatives of Phenylcarbamic Acid against Mycobacterial Strains: Old Drugs and New Tricks?” (Molecules : A Journal of Synthetic Chemistry and Natural …, 2018).
In brackets after ≈: the same amount, converted by molar mass. Where two headings read alike, the source gives them in different places.

Assays:
[1] = tested on: M. kansasii DSM 44162 (MK DSM); assay: in vitro antimycobacterial MIC, broth dilution micromethod in Middlebrook 7H9; assay type: cell-based; conditions: Mycobacterium kansasii, DSM 44162 / DSM 7, 168 h
[2] = electronic properties, UV/Vis spectrophotometry of methanolic solutions; assay type: physicochemical; conditions: methanolic solution c = 8.0 × 10^−5 M; for log ε2 (Ch-T): charge-transfer maximum λ2 (Ch-T) = 236–238 nm; for log ε1: λ1 = 208–210 nm; for log ε3: λ3 = 278–280 nm
Source text: Electronic properties of the molecules 1a–p (Table 1) were characterized by logarithms of molar absorption coefficients (log ε) of their methanolic solutions (c = 8.0 × 10^−5 M) investigated in the UV/Vis region of an electromagnetic spectrum.
Positions of these absorption bands in the spectrum were typical for derivatives of (substituted) phenylcarbamic acid and the bands were assigned as first local excitation (λ3), charge-transfer (λ2 (Ch-T)) and second local excitation (λ1) absorption maxima, respectively. The λ1 and λ2 (Ch-T) maxima of 2-alkoxy substituted compounds 1a–d and 1i–l were slightly lower compared to those of their 3-alkoxy substituted positional isomers 1e–h and 1m–p (Table 1), respectively.
The UV/Vis spectra of methanolic solutions of analyzed compounds 1a–p (c = 8.0 × 10^−5 M) were observed on the 8452A Diode Array spectrophotometer HP-8452A (Hewlett-Packard, Palo Alto, CA, USA) at 21 °C. Methanol for UV-spectroscopy (Merck, Darmstadt, Germany) was used for preparation of these solutions. Results of the UV/Vis analyses were collected and stored digitally using the ChemStation controller software (Agilent Technologies, Waldbronn, Germany). The HP-8452A apparatus measured a complete range of compounds’ spectrum from 190 nm to 820 nm.
The log ε values for presently observed absorption maxima were calculated following the Lambert-Beer’s law, which was discussed in [35], for example, and expressed by Equation (16):A = ε × c × l(16) where the A parameter represented absorbance of a compound’s solution, the ε descriptor was a molar absorption coefficient (in L/mol/cm units) and l was path length (in cm units).

[3] = tested on: white mice; conditions: subcutaneous application; cited from earlier work
[4] = tested on: guinea pig; parameters: method as in PMID 8402965; conditions: intradermal, 0.02 M procaine as standard; cited from earlier work
[5] = tested on: rabbit cornea; parameters: method as in PMID 8402965; conditions: 0.01 M cocaine as standard; cited from earlier work
[6] = 7-day cultivation, 37 °C, read-out: MIC MK DSM 7-d
[7] = read-out: MIC MK DSM 7-d, 7-day cultivation, 37 °C

Row | SMILES | MIC [1, 6] | log ε2 (Ch-T) [2] | log ε1 [2] | log ε3 [2] | MIC [1, 7] | LD50 [3] | Ui, index of relative infiltration local anesthetic efficiency [4] | Us, index of relative surface local anesthetic efficiency [5]
1 | CCCCOc1cccc(NC(=O)OC(CN(CCC)CCC)CN2CCCCCC2)c1 (stereo not shown) [1m] | 7.7 µM (≈ 3.45 µg/mL) | 4.09 | 4.52 | 3.44 | – | – | – | –
2 | CCCCOc1ccccc1NC(=O)OC(CN(CCC)CCC)CN1CCCC1 (stereo not shown) [1a] | 53 µM (≈ 22.2 µg/mL) | 4.19 | 4.51 | 3.63 | – | – | – | –
3 | CCCCOc1cccc(NC(=O)OC(CN(CCC)CCC)CN2CCCC2)c1 (stereo not shown) [1e] | 16.2 µM (≈ 6.8 µg/mL) | 4.24 | 4.65 | 3.59 | – | – | – | –
4 | CCCCCOc1ccccc1NC(=O)OC(CN(CCC)CCC)CN1CCCC1 (stereo not shown) [1b] | 26.1 µM (≈ 11.3 µg/mL) | 4.05 | 4.39 | 3.51 | – | – | – | –
5 | CCCCCCCOc1cccc(NC(=O)OC(CN(CCC)CCC)CN2CCCCCC2)c1.O=C(O)C(=O)O (stereo not shown) [1l, 1-[2-[({[3-(hept-yloxy)phenyl]amino}carbonyl)oxy]-3-(dipropylammonio)propyl]azepanium oxalate] | 382 µM | 4.14 | 4.44 | 3.59 | – | – | – | –
6 | CCCCCCCOc1cccc(NC(=O)OC(CN(CCC)CCC)CN2CCCC2)c1.Cl.Cl (stereo not shown) [1h, 1-[2-[({[3-(heptyloxy)phenyl]amino}carbonyl)oxy]-3-(dipropylammonio)propyl]pyrrolidinium dichloride] | – | 4.27 | 4.66 | 3.63 | 1.9 µM | – | – | –
7 | CCCCCCCOc1cccc(NC(=O)OC(CN(CCC)CCC)CN2CCCCCC2)c1.Cl.Cl (stereo not shown) [1p, 1-[2-[({[3-(heptyloxy)phenyl]amino}carbonyl)-oxy]-3-(dipropylammonio)propyl]azepanium dichloride] | – | 4.20 | 4.65 | 3.56 | 3.6 µM | – | – | –
8 | CCCCCCOc1cccc(NC(=O)OC(CN(CCC)CCC)CN2CCCC2)c1 (stereo not shown) [1g] | 3.8 µM (≈ 1.7 µg/mL) | 4.13 | 4.54 | 3.48 | – | – | – | –
9 | CCCCOc1ccccc1NC(=O)OC(CN(CCC)CCC)CN1CCCCCC1 (stereo not shown) [1i] | 51 µM (≈ 22.8 µg/mL) | 4.08 | 4.44 | 3.57 | – | – | – | –
10 | CCCCCOc1ccccc1NC(=O)OC(CN(CCC)CCC)CN1CCCCCC1.O=C(O)C(=O)O (stereo not shown) [1j, 1-[2-[({[2-(Pentyloxy)phenyl]amino}carbonyl)oxy]-3-(dipropylammonio)propyl]-azepanium oxalate] | – | 4.22 | 4.54 | 3.71 | 50 µM | – | – | –
11 | CCCCCCOc1ccccc1NC(=O)OC(CN(CCC)CCC)CN1CCCC1 (stereo not shown) [1c] | 12.7 µM (≈ 5.69 µg/mL) | 4.52 | 4.58 | 3.49 | – | 600 mg/kg | – | –
12 | CCCCCCOc1cccc(NC(=O)OC(CN(CCC)CCC)CN2CCCCCC2)c1.Cl.Cl (stereo not shown) [1o, 1-[2-[({[3-(hexyloxy)phenyl]amino}-carbonyl)oxy]-3-(dipropylammonio)propyl]azepanium dichloride] | – | 4.01 | 4.52 | 3.37 | 3.6 µM | – | – | –
13 | CCCCCCCOc1ccccc1NC(=O)OC(CN(CCC)CCC)CN1CCCC1.Cl.Cl (stereo not shown) [1d, 1-[2-[({[2-(heptyl-oxy)phenyl]amino}carbonyl)oxy]-3-(dipropylammonio)propyl]pyrrolidinium dichloride] | – | 4.08 | 4.43 | 3.55 | 6.2 µM | – | – | –
14 | CCCCCCOc1ccccc1NC(=O)OC(CN(CCC)CCC)CN1CCCCCC1 (stereo not shown) [1k] | 98 µM (≈ 46.6 µg/mL) | 4.10 | 4.42 | 3.57 | – | – | – | –
15 | CCCCCOc1cccc(NC(=O)OC(CN(CCC)CCC)CN2CCCC2)c1.Cl.Cl (stereo not shown) [1f, 1-[2-[({[3-(pentyloxy)phenyl]amino}carbonyl)oxy]-3-(dipropylammonio)propyl]-pyrrolidinium dichloride] | – | 4.27 | 4.55 | 3.62 | 7.9 µM | – | 250 | 130
16 | CCCCCOc1cccc(NC(=O)OC(CN(CCC)CCC)CN2CCCCCC2)c1.Cl.Cl (stereo not shown) [1n, 1-[2-[({[3-(pentyloxy)phenyl]amino}carbonyl)oxy]-3-(di-propylammonio)propyl]azepanium dichloride] | – | 4.18 | 4.56 | 3.52 | 7.5 µM | – | – | –
